Earlier results, collected in patent publication US20240016419A1, “ELECTROCHEMICAL GLUCOSE SENSING BY EQUILIBRIUM GLUCOSE BINDING TO GENETICALLY ENGINEERED GLUCOSE BINDING PROTEINS” (Cercacor Laboratories, Inc., priority 2022, published 2024).

For “A213R: GGBP with Alanine residue at the 213 position changed to an Arginine residue”, the binding constant shift (A213R versus wild-type GGBP, from 0.2 μM to 1 mM) is given as 5000 fold and the Kd (binding to glucose, read-out: binding constant) is given as 1000 µM.
